Experimental data reported in patent US20210284618A1, “FURANOCHALCONES AS INHIBITORS OF CYP1A1, CYP1A2 AND CYP1B1 FOR CANCER CHEMOPREVENTION” (Council of Scientific & Industrial Research, priority 2016, published 2021).

Tests used:
CYP1A1 [1] = molecular target: T1, CYP1A1 (Homo sapiens, UniProt P04798); assay: CYP1A1 inhibition in HEK293 cells transfected with pcDNA3.1/CYP1A1 (live cells); assay type: cell-based; settings: for inhibition at 10 μM: human, HEK293 cells transfected with pcDNA3.1/CYP1A1 (live cells), probe EROD (5 μM), % inhibition of CYP1A1 in HEK293 cells at 10 μM; for inhibition at 10 μM / % inhibition of CYP1A1 in HEK293 cells at 10 μM: 5 μM EROD
T1 construct: host or cells: yeast microsomes (Saccharosomes)
T1 sequence (P04798 1-512): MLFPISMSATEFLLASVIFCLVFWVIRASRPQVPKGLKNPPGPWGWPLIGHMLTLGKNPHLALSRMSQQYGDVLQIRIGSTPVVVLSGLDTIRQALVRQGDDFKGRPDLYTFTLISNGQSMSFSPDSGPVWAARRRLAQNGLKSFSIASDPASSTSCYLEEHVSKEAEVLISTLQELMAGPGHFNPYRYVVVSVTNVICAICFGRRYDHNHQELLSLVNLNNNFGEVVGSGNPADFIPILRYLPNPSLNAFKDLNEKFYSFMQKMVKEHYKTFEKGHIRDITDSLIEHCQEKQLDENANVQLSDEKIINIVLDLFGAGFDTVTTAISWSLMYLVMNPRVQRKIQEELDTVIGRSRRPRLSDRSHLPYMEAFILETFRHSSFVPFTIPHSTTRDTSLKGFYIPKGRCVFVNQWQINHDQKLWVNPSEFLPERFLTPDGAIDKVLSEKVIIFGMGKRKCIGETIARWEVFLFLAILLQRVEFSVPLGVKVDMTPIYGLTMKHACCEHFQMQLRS
Description: Example 26. In-vitro CYP450 inhibition in HEK293 cells transfected with pcDNA3.1/CYP1A1 against 5 μM EROD. […] The HEK293 cells used here was procured from ‘European Collection of Authenticated Cell Cultures’ (catalog number. ECACC 85120602).

CYP1A1 [2] = molecular target: T1, CYP1A1; assay: In-vitro CYP450 1A1 enzyme inhibition in Saccharosomes; assay type: biochemical; settings: for inhibition at 20 min, 10 μM: human, Saccharosomes containing CYP1A1, pH 7.4, probe ethoxyresorufin (5 μM), % inhibition of CYP1A1 in Saccharosomes at 10 μM; for inhibition at 20 min, 10 μM / % inhibition of CYP1A1 in Saccharosomes at 10 μM: 10 μM test compound, 5 μM ethoxyresorufin
Description: Example 23. In-vitro CYP450 1A1 enzyme inhibition in Saccharosomes™: The screening method utilizes 384-well microplates to rapidly ascertain relative percentage inhibition of CYP1A1 by a library of compounds. Each reaction was performed in black, clear-bottomed 384-well microplates. A reaction volume of 50 μl comprised of 0.5 pmol of the cytochrome P450 CYP1A1 (Saccharosomes), 5 μM of ethoxyresorufin substrate (which contributes 0.05% DMSO to the well), 10 μM of potential inhibitor test article (which contributes 0.5% DMSO to the well), A P450 reductase NADPH regenerating system (1.3 mM NADP+, 3.3 mM glucose-6-0.02 units phosphate and glucose-6-Phosphate dehydrogenase), potassium phosphate buffer (final well concentration 100 mM, pH 7.4) and water. Very small quantities of magnesium chloride and sodium citrate are added to the NADPH regenerating system, in line with standard published protocols. The potential inhibitor (test article) was pre-incubated with CYP1A1 of at least 20 minutes at 30° C. After this period, the remainder of the reagents required in the assay was added to initiate the process. The reaction mixture was incubated for another 20 minutes at 30° C. The reaction was stopped by adding an 80% acetonitrile, 20% 0.5 M Tris solution. The reactions were monitored using the Biotek Synergy HT plate reader by measuring the endpoint reaction at Excitation 530/(25 bandwidth) & Emission 590/(20 bandwidth) using a gain/sensitivity setting of 60. The mean of the quadruplicates of the negative control (solvent inactivated CYP1A1) was deducted from the mean of potential inhibitor (test article) samples. The percentage was then derived relative to the mean of the wells without inhibitor.
(§1) Example 25. IC50 determination for best compound against CYP1A1, CYP1B1 and other CYPs in Saccharosomes. Compounds were serially diluted to six different concentrations with 10% DMSO in a Sero-Well white microplate. The experiment was performed in a similar way as described above in examples 23 and 24.

CYP1B1 = molecular target: T2, CYP1B1 (Homo sapiens, UniProt Q16678); assay: In-vitro CYP450 1B1 enzyme inhibition in Saccharosomes; assay type: biochemical; set-up: purchased CYP Design Ltd; host or cells: yeast microsomes (Saccharosomes); settings: 10 μM test compound, 7-ethoxyresorufin; for inhibition at 10 μM: human, Saccharosomes (yeast-derived) with recombinant CYP1B1, probe 7-ethoxyresorufin (5 μl of 0.1 mM), % inhibition of CYP1B1 in Saccharosomes at 10 μM
T2 sequence (Q16678 1-543): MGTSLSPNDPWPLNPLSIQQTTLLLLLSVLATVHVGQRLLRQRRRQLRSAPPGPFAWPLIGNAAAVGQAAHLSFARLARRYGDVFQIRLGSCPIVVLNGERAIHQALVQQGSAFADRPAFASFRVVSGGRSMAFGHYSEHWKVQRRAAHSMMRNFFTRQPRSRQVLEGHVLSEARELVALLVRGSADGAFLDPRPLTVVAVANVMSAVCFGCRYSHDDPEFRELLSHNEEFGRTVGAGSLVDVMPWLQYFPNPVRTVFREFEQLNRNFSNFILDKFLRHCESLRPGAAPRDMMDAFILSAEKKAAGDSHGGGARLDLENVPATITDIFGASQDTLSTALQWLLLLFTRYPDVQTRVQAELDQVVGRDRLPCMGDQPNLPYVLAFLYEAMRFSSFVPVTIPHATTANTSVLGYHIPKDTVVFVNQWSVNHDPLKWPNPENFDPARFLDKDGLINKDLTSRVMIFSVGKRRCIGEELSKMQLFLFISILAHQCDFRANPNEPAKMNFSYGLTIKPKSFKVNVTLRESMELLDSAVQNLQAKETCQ
Description: Example 24. In-vitro CYP450 1B1 enzyme inhibition in Saccharosomes™: Regenerating system consists of: 5 μl Solution A (183 mg of NADP++183 mg of glucose-6-phosphate+654 μl of 1.0 M magnesium chloride solution+9.15 ml of sterile ultra-pure water)+1 μl Solution B (250 Units of glucose-6-phosphate dehydrogenase+6.25 ml of 5 mM sodium citrate; mixed in a tube and made up to 10 ml with sterile ultra-pure water)+39 μl 0.2 M Kpi (0.6 ml of 1.0M K2HPO4+9.4 ml of 1.0 M KH2PO4 were mixed and made up to 50 ml with sterile ultra-pure water)+5 μl potential inhibitory compound.
as §1

Row | Structure (SMILES) | inhibition at 10 μM (CYP1A1 [1]) [%] | inhibition at 20 min, 10 μM (CYP1A1 [2]) [%] | melting point [°C] | inhibition at 10 μM (CYP1B1) [%] | other results
1 | O=c1cc(-c2ccccc2)oc2c1ccc1ccccc12 [Alpha-naphthoflavone, reference compound] | 30 | 97 |  |  | IC50 (CYP1A1 [1]): > 10000 nM; IC50 (CYP1A1 [2]): 0.09 µM; % inhibition of CYP1B1 in Saccharosomes at 10 μM (CYP1B1): 98%
2 | COc1c2occc2c(OC)c2c(=O)cc(C)oc12 [Compound 1, Khellin, reference compound] |  | 88 |  |  | % inhibition of CYP1A1 in Saccharosomes at 10 μM (CYP1A1 [2]): 88.3%
3 | COc1c(C(C)=O)c(O)c(OC)c2occc12 [Compound 2, 1-(6-hydroxy-4,7-dimethoxybenzofuran-5-yl)ethanone] | > 80 |  |  |  | 
4 | COc1c(C(=O)/C=C/c2ccc(Br)cc2)c(O)c(OC)c2occc12 [Compound 3, 3-(4,7-dimethoxy-6-hydroxybenzofuran-5-yl)-1-(4-bromophenyl)-3-oxopropene] |  |  | 135 to 137 |  | 
5 | COc1c(C(=O)/C=C/c2ccc(Cl)cc2)c(O)c(OC)c2occc12 [Compound 4, 3-(4,7-dimethoxy-6-hydroxybenzofuran-5-yl)-1-(4-chlorophenyl)-3-oxopropene] | > 80 | 77.5 | 162 to 164 |  | % inhibition of CYP1A1 in HEK293 cells at 10 μM (CYP1A1 [1]): 85.7%
6 | COc1c(C(=O)/C=C/c2ccc(F)c(Br)c2)c(O)c(OC)c2occc12 [Compound 5, 3-(4,7-dimethoxy-6-hydroxybenzofuran-5-yl)-1-(3-bromo-4-fluorophenyl)-3-oxopropene] | > 80 | > 80 | 186 to 188 |  | % inhibition of CYP1A1 in HEK293 cells at 10 μM (CYP1A1 [1]): 82.3%; % inhibition of CYP1A1 in Saccharosomes at 10 μM (CYP1A1 [2]): 83.1%
7 | COc1c(C(=O)/C=C/c2ccc(F)cc2F)c(O)c(OC)c2occc12 [Compound 7, 3-(4,7-dimethoxy-6-hydroxybenzofuran-5-yl)-1-(2,4-difluorophenyl)-3-oxopropene] | > 80 |  | 154 to 156 |  | 
8 | COc1ccc(/C=C/C(=O)c2c(O)c(OC)c3occc3c2OC)cc1 [Compound 9, 3-(4,7-dimethoxy-6-hydroxybenzofuran-5-yl)-1-(4-methoxyphenyl)-3-oxopropene] | 55.7 | 28.9 | 198 to 199 |  | 
9 | COc1c(C(=O)/C=C/c2c(Cl)cccc2Cl)c(O)c(OC)c2occc12 [Compound 10, 3-(4,7-dimethoxy-6-hydroxybenzofuran-5-yl)-1-(2,6-dichlorophenyl)-3-oxopropene] | 58.8 | 19.6 | 298 to 299 |  | 
10 | COc1cccc(/C=C/C(=O)c2c(O)c(OC)c3occc3c2OC)c1OC [Compound 13, 3-(4,7-dimethoxy-6-hydroxybenzofuran-5-yl)-1-(2,3 dimethoxyphenyl)-3-oxopropene] |  |  | 260 to 262 |  | 
11 | COc1c(C(=O)/C=C/c2ccccc2)c(O)c(OC)c2occc12 [Compound 16, 3-(4,7-dimethoxy-6-hydroxybenzofuran-5-yl)-1-(phenyl)-3-oxopropene] | > 80 | > 80 |  |  | 
12 | COc1ccc(/C=C/C(=O)c2c(O)c(OC)c3occc3c2OC)cc1Br [Compound 17, 3-(4,7-dimethoxy-6-hydroxybenzofuran-5-yl)-1-(3-bromo-4-methoxyphenyl)-3-oxopropene] | 74 | 37 |  |  | 
13 | COc1cc(OC)c(OC)cc1/C=C/C(=O)c1c(O)c(OC)c2occc2c1OC [Compound 18, 3-(4,7-dimethoxy-6-hydroxybenzofuran-5-yl)-1-(2,4,5-trimethoxyphenyl)-3-oxopropene] | > 80 | > 80 |  |  | % inhibition of CYP1A1 in HEK293 cells at 10 μM (CYP1A1 [1]): 96.8%; % inhibition of CYP1A1 in Saccharosomes at 10 μM (CYP1A1 [2]): 92.2%
14 | COc1c(C(=O)/C=C/c2ccc3c(c2)OCO3)c(O)c(OC)c2occc12 [Compound 19, 3-(benzo[d][1,3]dioxol-5-yl)-1-(6-hydroxy-4,7-dimethoxybenzofuran-5-yl)prop-2-en-1-one] |  | 48.4 |  | 41.6 | 
15 | COc1c(C(=O)/C=C/c2ccsc2)c(O)c(OC)c2occc12 [Compound 20, 1-(6-hydroxy-4,7-dimethoxybenzofuran-5-yl)-3-(thiophen-3-yl)prop-2-en-1-one] | 79.4 | > 80 |  | > 80 | % inhibition of CYP1A1 in Saccharosomes at 10 μM (CYP1A1 [2]): 95.1%; % inhibition of CYP1B1 in Saccharosomes at 10 μM (CYP1B1; 10 µM): 84.0%
16 | COc1c(C(=O)/C=C/c2ccc(Cl)cc2Cl)c(O)c(OC)c2occc12 [Compound 21, 3-(2,4-dichlorophenyl)-1-(6-hydroxy-4,7-dimethoxybenzofuran-5-yl)prop-2-en-1-one] | 71.4 | > 80 |  | 51.4 | % inhibition of CYP1A1 in Saccharosomes at 10 μM (CYP1A1 [2]): 80.2%
17 | COc1c(C(=O)/C=C/c2ccc3ccccc3c2)c(O)c(OC)c2occc12 [Compound 22, 1-(6-hydroxy-4,7-dimethoxybenzofuran-5-yl)-3-(naphthalen-2-yl)prop-2-en-1-one] |  | 49.7 |  | 25.8 | 
18 | COc1c(C(=O)/C=C/c2ccccc2F)c(O)c(OC)c2occc12 [Compound 23, 3-(2-fluorophenyl)-1-(6-hydroxy-4,7-dimethoxybenzofuran-5-yl)prop-2-en-1-one] |  | 41.1 |  | 34.2 | 
19 | COc1c(C(=O)/C=C/c2ccc3cc4ccccc4cc3c2)c(O)c(OC)c2occc12 [Compound 24, 3-(anthracen-2-yl)-1-(6-hydroxy-4,7-dimethoxybenzofuran-5-yl)prop-2-en-1-one] |  | 43.4 |  | 19.2 | 
